# In patent US7786257B2, “Signal-1/signal-2 bifunctional peptide inhibitors” (priority 2000, dated 2010):
# “Also recorded” adds a separate entry of the source. Where no end group is shown, it is not given here. [ ]: non-standard residue; d: D form. Ahx = NCCCCCC(=O)O
# Tests used:
# [1] = test system: T-cells from NOD mice; test: ELISPOT of IL-4 and IFN-γ release by T-cells from treated NOD mice (TH1/TH2 frequency); type: in vivo, mouse
# Excerpt: Groups of 3-5 NOD mice were immunized subcutaneously (s.c.) with the GAD 65 peptide in CFA (40 nanomoles/mouse) at the tail base. Different groups received either the EGAD-BPI, its single TCR epitope (Signal-1 moiety), or its CD11a peptide (Signal-2 moiety) i.v. (all 40 nanomoles/mouse). After 6-8 days, another identical 40 nanomole injection was given to each mouse, and the next day lymph nodes draining the site of the s.c. injection were made into single cell suspensions for culture. Identical primary cultures were incubated for 96 hours; then, viable T-cells were recovered by density gradient centrifugation. One million of these cells were combined in nitrocellulose-bottomed 96-well plates (Millititer-HA, Millipore, Bedford, Mass.), previously coated (50 μl/well) with mAb to either mouse IFNγ (clone R4-6A2), or mouse IL-4 (clone BVD4-1D11) at a concentration of 10 μg/ml in PBS. Groups of triplicate cultures were incubated with either Concanavalin-A (2 μg/ml), or the Signal-1 peptide moiety plus 20 U/ml recombinant IL2 (R & D Systems). After 72-96 hours of culture at 37° C. and 5% CO2, plates were washed three times with PBS-0.05% Tween-20. In appropriate wells are added biotinylated anti-IFNγ (clone XMG1.2) or biotinylated anti-IL-4 (clone BVD6-24G2) at a concentration of 1 μg/ml and incubated for 1 hour at room temperature. Positive control wells receive known TH1 or TH2 clones in place of normal T-cells. MAb pairs to IL12, IL10, and IL2 are also available and will be used to test for these cytokines in the same assay. All mAb and recombinant controls are purchased from PharMingen (San Diego, Calif.). Finally, plates were washed three times with PBS-Tween, and then exposed to 100 μl of a 1:2000 dilution of streptavidin alkaline phosphatase (Jackson ImmunoResearch, West Grove, Pa.) for 1 h and washed as before. […]
# [2] = test system: NOD mice; test: Lymphocytic infiltration of pancreatic islets (insulitis) in NOD mice, histological scoring; type: in vivo, mouse
# Excerpt: To evaluate the disease process by immunohistology (see, e.g., FIG. 12A-D), spleen, pancreas, or other target organs, e.g., the CNS for the MDP peptide BPI, or lung for the RSV peptide BPI, were removed from euthanized mice of each group and prepared for histology by fixing in neutral buffered formalin and embedding in paraffin, or snap frozen in O.C.T. medium. For scoring inflammation, minimums of five sections from each mouse were used to assess the blocking affect of a given BPI. For characterization of standard T-cell markers on cellular infiltrates, biotinylated mAb to various cell surface antigens will be incubated individually with the Cryostat sections (2 hours), followed by avidin-alkaline phosphatase (Vector laboratories). Alternatively, cell subsets will be phenotyped by standard flow cytometry methods as described in Murray et al., 24 Eur. J. Immunol. 2337-2344 (1994); Murray; 19 Immunology Today 157-163; and Schountz et al., 157 The Journal of Immunology 3893-3901 (1996). Finally, the students t-test or ANOVA will be used to estimate the statistical significance of differences observed between groups and individual mice.
# These studies sought to confirm that the BPI containing the immunodominant GAD65 TCR epitope (EGAD-BPI) was biologically active in vivo and inhibited the development of pancreatic inflammation. Groups of three normal glycemic NOD males (8 weeks old) were immunized with the GAD65 (208-217) peptide in CFA as described in Example 4. The control group received PBS, and separate experimental groups received either the EGAD-BPI, the GAD peptide alone (i.e., the T-cell receptor epitope), or the CD11a peptide alone(i.e., the second signal receptor moiety) by two intravenous injections as described in Example 4. On day 10, the pancreata were removed to 10% PBS-buffered formalin, embedded in paraffin, and five-micron serial sections were examined histologically for mononuclear cell infiltration as previously described by Yoon, et al., Control of Autoimmune Diabetes in NOD Mice by GAD Expression or Suppression in β Cells, 284 Science 1183-1187 (1999), the entirety of which is hereby incorporated by reference.
substance,measurement,setting,value
GAD65(208-217)-[Ac-G-Ac-G-Ac]-CD11a (237-247) (EIAPVFVLLE[Ahx]G[Ahx]G[Ahx]ITDGEATDSG) [EGAD-BPI],IFN-γ production,[1]; T-cells from treated animals stimulated in vitro with mitogen,"also increased, although to a lesser extent"
same,IL-4 production increase,"[1]; T-cells from treated animals stimulated in vitro with mitogen, versus saline control, 40 nanomoles/mouse i.v. twice",approximately 10 fold
same,IL-4 production,[1]; treated NOD mice versus control mice,abundant IL-4
same,"intact / normal islets without infiltration (grade-0 islets), percentage of islets examined","[2]; NOD males, GAD65 peptide in CFA, two i.v. injections of 40 nanomoles, day 10",Over 95%
same,"mononuclear cell infiltration of islets (insulitis), in words","[2]; NOD males, day 10, histology",clear inhibitory effect; also recorded: predominately intact
same,inhibition of insulitis,"[2]; compared to the PBS control, calculated from % islets at grade 1-4",84%
